Measured values from publication PMC8224453, “A New PqsR Inverse Agonist Potentiates Tobramycin Efficacy to Eradicate Pseudomonas aeruginosa Biofilms” (Advanced Science, 2021).
Converted amounts (≈) assume the structure as drawn. Like-named read-outs stand apart in the source and are kept apart here.

What was measured:
planktonic PA14 wt = experiment: MIC assay, microbroth dilution; format: cell-based; conditions: Pseudomonas aeruginosa
Procedure: composed of 15.5 g/L LB agar, 10 g/L peptone, 5 g/L NaCl and 5 g/L yeast extract, the resulting solution was sterilized before being plated.
The minimum inhibitory concentration […] of drug-free SqNPs, compound 4 prepared either in dimethyl sulfoxide (DMSO) or loaded in SqNPs, free Tob, Tob-loaded SqNPs, and Tob and compound 4 co-loaded SqNPs against planktonic PA14 wt were determined by standard microbroth dilution assays in 96-well plates. PA14 wt suspension was prepared from mid-log cultures in PPGAS medium and diluted to OD600 (absorption at 600 nm) 0.02 (2∙10^7 CFU/mL (CFU, colony-forming units)). PBS served as a control. Following 16 h incubation […]
nm) that were measured using a Tecan microplate reader Infinite M200Pro (Tecan, Crailsheim, Germany). The IC90 values are concentrations at which the growth of bacteria is inhibited by 90%. Three independent experiments were conducted in triplicate. Results are […]
Table S2. MIC assay against PA14 wt. Three independent experiments were conducted in triplicate.
Samples MIC (IC90 value) against PA14 wt
Drug-free SqNPs > 200 µg/mL
Compound (4) prepared in DMSO > 20 µM
Compound (4)-loaded SqNPs > 20 µM (a)
Tob loaded SqNPs 3.125 – 6.25 µg/mL (b)
Tob and compound (4) co-loaded SqNPs 3.125 – 6.25 µg/mL (b)
((4) concentration 20 µM)
(a) Compound (4) concentration
4.3. Minimum Biofilm Eradicating Concentration (MBEC) assay
Chemical and biological materials for in vitro assays. All chemicals were purchased from Sigma-Aldrich unless otherwise specified. Yeast extract was obtained from Fluka. Bacto™ Tryptone were obtained from BD Biosciences. Luria Bertani (LB) agar was obtained from Carl Roth. Gibco® PBS was obtained from Life Technologies. Purified water was prepared by a Milli-Q water purification system (Merk Millipore, Billerica, MA). The PA strain PA14

[1] = Kinetic turbidimetric solubility assay; format: physicochemical; conditions: PBS; for solubility kinetic at 5 min: aqueous buffer, kinetic from dmso stock, read-out: Kinetic solubility S kin
Procedure: 5.4. Kinetic Turbidimetric Solubility Assay
The desired compounds were sequentially diluted in DMSO in a 96-well plate. A 3 µL of each well were transferred into another three 96-well plates, followed by addition of 147 µL of PBS. Plates were shaken for 5 min at 600 rpm at room temperature (r.t.), and the absorbance at 620 nm was measured. Absorbance values were normalized by blank […]
(§1) subtraction and plotted using GraphPad Prism 8.4.2 (GraphPad Software, San Diego, CA, […]

[2] = Metabolic stability half-life (matrix not given); format: in vitro ADME; conditions: matrix not stated; read-out: metabolic stability half-life t 1/2
Procedure: First, we evaluated the most promising compounds considering in vitro pharmacokinetic properties such as solubility and metabolic stability. […] Compounds 4 and 19 were moderately stable with half‐lives of 10 and 19 min, respectively.

[3] = Permeability across Calu-3 monolayer; format: in vitro ADME; conditions: human; Calu‐3 lung epithelial cells
Procedure: as §1
USA). Solubility (S) was determined based on the First X value of AUC function using a […]
For the evaluation of combined phase I and phase II metabolic stability, the compound (1 μM) was incubated with 1 mg/mL pooled liver S9 fraction from the respective species (Xenotech), […]
2 mM NADPH, 1 mM UDPGA, 10 mM MgCl2, 5 mM GSH and 0.1 mM PAPS at 37 °C for […]
0, 5, 15, 30 or 60 min. The metabolic stability of Testosterone (1 μM) and verapamil (1 μM) […]
were determined in parallel to confirm the enzymatic activity of the S9 fraction. The […]
incubation was stopped by precipitation of S9 enzymes with 2 volumes of cold acetonitrile […]
containing internal standard (750 nM Diphenhydramine). Samples were stored on ice for 10 […]
Concentration of the remaining test compound at the different time points was analyzed by […]
Permeability of compound 4 and 17 was assessed in vitro with Calu-3 HTB-55 cell line (ATCC). […]
Pyruvate. […] TEER was monitored during the experiment and epithelial barriers were considered compromised if the TEER fell below 300 during 4 h of experiment duration. […] 50 µL of sample was mixed with 150 µL of ice-cold acetonitrile containing internal standard diphenhydramine (1 µM) and the concentration of compound was analyzed with LC-MS/MS. […]

Row | SMILES | MIC (planktonic PA14 wt; PA14, Tob concentration, 16 h, read-out: MIC (IC90 value) against PA14 wt) | MIC (planktonic PA14 wt; PA14 wt, read-out: MIC in the planktonic setting) | Kinetic solubility S kin [1] | solubility kinetic at 5 min [1] | half-life [2] | Papp at 4 h [3] | MIC (planktonic PA14 wt; PA14, compound (4) concentration, 16 h, read-out: MIC (IC90 value) against PA14 wt)
1 | NC[C@H]1O[C@H](O[C@H]2[C@H](O)[C@@H](O[C@H]3O[C@H](CO)[C@@H](O)[C@H](N)[C@H]3O)[C@H](N)C[C@@H]2N)[C@H](N)C[C@@H]1O [Tobramycin, tobramycin] | 3.12 to 6.25 µg/mL | 3.12 to 6.25 µg/mL | – | – | – | – | –
2 | COc1ccc(-n2cc(CNc3ccnc(C(F)(F)F)c3)nn2)cc1Cl [Compound 17] | – | – | 64.1 µM | 64 µM (≈ 24.6 µg/mL) | 3 min | 11.4 ×10⁻⁶ cm/s | –
3 | FC(F)(F)c1cc(NCc2cn(-c3ccc(Oc4ccccc4)cc3)nn2)ccn1 [Compound 4] | – | – | – | 7.7 µM (≈ 3.17 µg/mL) | 10 min | 5.3 ×10⁻⁶ cm/s | > 20 µM
